Measured values taken from the supplement of paper PMC10307832.

Assays:
Assay in all cases: relative viability (nuclei count vs DMSO), 5 days (fraction); higher = more cells survive
JZL-184 = compound: C1CN(CCC1C(C2=CC3=C(C=C2)OCO3)(C4=CC5=C(C=C4)OCO5)O)C(=O)OC6=CC=C(C=C6)[N+](=O)[O-] [JZL-184]
Summary of the method: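 Lung cancer cell lines in 1536-well plates were exposed by pinning to five library-drug doses (not always all listed) √10 apart, following an overnight hold at 37 °C. MetaXpress counted Hoechst-stained nuclei from 4× images taken after 5 days without medium change. Viability is the median ratio of treated-well to vehicle-well nuclei across plates. Plates required control CV below 25% and at least one doubling.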

JZL-184 + Vorinostat = compound: C1CN(CCC1C(C2=CC3=C(C=C2)OCO3)(C4=CC5=C(C=C4)OCO5)O)C(=O)OC6=CC=C(C=C6)[N+](=O)[O-] [JZL-184] + O=C(CCCCCCC(=O)Nc1ccccc1)NO [Vorinostat] (partner 1 µM)
Summary of the method: (§1)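 Nuclei were stained with Hoechst during a one-step fixation (final 0.05% Triton X-100, 1% formaldehyde, 1 ug/ml Hoechst) carried out 5 days after dosing, then counted on 4× images. The cells, lung cancer lines in 1536-well plates, had been dosed by pin tool the day after seeding with one drug alone or a fixed anchor-drug dose plus five library-drug doses (not always all listed) in √10 steps. Relative viability is the nuclei count in treated wells divided by that in vehicle wells, and each value is the median of duplicate plates.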

JZL-184 + Luminespib = compound: C1CN(CCC1C(C2=CC3=C(C=C2)OCO3)(C4=CC5=C(C=C4)OCO5)O)C(=O)OC6=CC=C(C=C6)[N+](=O)[O-] [JZL-184] + CCNC(=O)c1noc(-c2cc(C(C)C)c(O)cc2O)c1-c1ccc(CN2CCOCC2)cc1 [Luminespib] (partner 0.01 µM)
Summary of the method: as §1

JZL-184 + Linsitinib = compound: C1CN(CCC1C(C2=CC3=C(C=C2)OCO3)(C4=CC5=C(C=C4)OCO5)O)C(=O)OC6=CC=C(C=C6)[N+](=O)[O-] [JZL-184] + C[C@]1(O)C[C@@H](c2nc(-c3ccc4ccc(-c5ccccc5)nc4c3)c3c(N)nccn32)C1 [Linsitinib] (partner 1 µM)
Summary of the method: as §1

JZL-184 + Crizotinib = compound: C1CN(CCC1C(C2=CC3=C(C=C2)OCO3)(C4=CC5=C(C=C4)OCO5)O)C(=O)OC6=CC=C(C=C6)[N+](=O)[O-] [JZL-184] + C[C@@H](Oc1cc(-c2cnn(C3CCNCC3)c2)cnc1N)c1c(Cl)ccc(F)c1Cl [Crizotinib] (partner 1 µM)
Summary of the method: as §1

NCI-H838
relative viability (JZL-184; 0.04 µM): 1.11 | relative viability (JZL-184; 0.4 µM): 1.03 | relative viability (JZL-184; 1.265 µM): 1.04 | relative viability (JZL-184; 4 µM): 0.984 | relative viability (JZL-184 + Vorinostat; first compound 0.04 µM): 0.791 | relative viability (JZL-184 + Vorinostat; first compound 0.4 µM): 0.72 | relative viability (JZL-184 + Vorinostat; first compound 1.265 µM): 0.738 | relative viability (JZL-184 + Vorinostat; first compound 4 µM): 0.636 | relative viability (JZL-184 + Luminespib; first compound 0.04 µM): 0.287 | relative viability (JZL-184 + Luminespib; first compound 0.4 µM): 0.281 | relative viability (JZL-184 + Luminespib; first compound 1.265 µM): 0.274 | relative viability (JZL-184 + Luminespib; first compound 4 µM): 0.258 | relative viability (JZL-184 + Linsitinib; first compound 0.04 µM): 1.23 | relative viability (JZL-184 + Linsitinib; first compound 0.4 µM): 1.05 | relative viability (JZL-184 + Linsitinib; first compound 1.265 µM): 0.98 | relative viability (JZL-184 + Linsitinib; first compound 4 µM): 0.98 | relative viability (JZL-184 + Crizotinib; first compound 0.04 µM): 1.05 | relative viability (JZL-184 + Crizotinib; first compound 0.4 µM): 0.885 | relative viability (JZL-184 + Crizotinib; first compound 1.265 µM): 0.941 | relative viability (JZL-184 + Crizotinib; first compound 4 µM): 0.76

NCI-H1355
relative viability (JZL-184; 0.04 µM): 0.984 | relative viability (JZL-184; 0.4 µM): 0.927 | relative viability (JZL-184; 1.265 µM): 1.06 | relative viability (JZL-184; 4 µM): 0.946 | relative viability (JZL-184 + Vorinostat; first compound 0.04 µM): 0.684 | relative viability (JZL-184 + Vorinostat; first compound 0.4 µM): 0.63 | relative viability (JZL-184 + Vorinostat; first compound 1.265 µM): 0.672 | relative viability (JZL-184 + Vorinostat; first compound 4 µM): 0.618 | relative viability (JZL-184 + Luminespib; first compound 0.04 µM): 0.713 | relative viability (JZL-184 + Luminespib; first compound 0.4 µM): 0.705 | relative viability (JZL-184 + Luminespib; first compound 1.265 µM): 0.828 | relative viability (JZL-184 + Luminespib; first compound 4 µM): 0.69 | relative viability (JZL-184 + Linsitinib; first compound 0.04 µM): 0.606 | relative viability (JZL-184 + Linsitinib; first compound 0.4 µM): 0.856 | relative viability (JZL-184 + Linsitinib; first compound 1.265 µM): 0.842 | relative viability (JZL-184 + Linsitinib; first compound 4 µM): 0.8 | relative viability (JZL-184 + Crizotinib; first compound 0.04 µM): 1.06 | relative viability (JZL-184 + Crizotinib; first compound 0.4 µM): 1.01 | relative viability (JZL-184 + Crizotinib; first compound 1.265 µM): 1.22 | relative viability (JZL-184 + Crizotinib; first compound 4 µM): 0.925

NCI-H1437
relative viability (JZL-184; 0.04 µM): 1.04 | relative viability (JZL-184; 0.4 µM): 0.948 | relative viability (JZL-184; 1.265 µM): 1.02 | relative viability (JZL-184; 4 µM): 0.961 | relative viability (JZL-184 + Vorinostat; first compound 0.04 µM): 0.731 | relative viability (JZL-184 + Vorinostat; first compound 0.4 µM): 0.725 | relative viability (JZL-184 + Vorinostat; first compound 1.265 µM): 0.756 | relative viability (JZL-184 + Vorinostat; first compound 4 µM): 0.659 | relative viability (JZL-184 + Luminespib; first compound 0.04 µM): 1.19 | relative viability (JZL-184 + Luminespib; first compound 0.4 µM): 1.14 | relative viability (JZL-184 + Luminespib; first compound 1.265 µM): 0.947 | relative viability (JZL-184 + Luminespib; first compound 4 µM): 1.08 | relative viability (JZL-184 + Linsitinib; first compound 0.04 µM): 1.24 | relative viability (JZL-184 + Linsitinib; first compound 0.4 µM): 1.01 | relative viability (JZL-184 + Linsitinib; first compound 1.265 µM): 1.07 | relative viability (JZL-184 + Linsitinib; first compound 4 µM): 0.958 | relative viability (JZL-184 + Crizotinib; first compound 0.04 µM): 0.938 | relative viability (JZL-184 + Crizotinib; first compound 0.4 µM): 0.889 | relative viability (JZL-184 + Crizotinib; first compound 1.265 µM): 0.888 | relative viability (JZL-184 + Crizotinib; first compound 4 µM): 0.841

NCI-H1651
relative viability (JZL-184; 0.04 µM): 1.08 | relative viability (JZL-184; 0.4 µM): 0.907 | relative viability (JZL-184; 1.265 µM): 1 | relative viability (JZL-184; 4 µM): 0.967 | relative viability (JZL-184 + Vorinostat; first compound 0.04 µM): 0.593 | relative viability (JZL-184 + Vorinostat; first compound 0.4 µM): 0.36 | relative viability (JZL-184 + Vorinostat; first compound 1.265 µM): 0.5 | relative viability (JZL-184 + Vorinostat; first compound 4 µM): 0.554 | relative viability (JZL-184 + Luminespib; first compound 0.04 µM): 0.894 | relative viability (JZL-184 + Luminespib; first compound 0.4 µM): 0.797 | relative viability (JZL-184 + Luminespib; first compound 1.265 µM): 0.902 | relative viability (JZL-184 + Luminespib; first compound 4 µM): 0.765 | relative viability (JZL-184 + Linsitinib; first compound 0.04 µM): 0.988 | relative viability (JZL-184 + Linsitinib; first compound 0.4 µM): 0.927 | relative viability (JZL-184 + Linsitinib; first compound 1.265 µM): 0.933 | relative viability (JZL-184 + Linsitinib; first compound 4 µM): 0.816 | relative viability (JZL-184 + Crizotinib; first compound 0.04 µM): 0.896 | relative viability (JZL-184 + Crizotinib; first compound 0.4 µM): 0.839 | relative viability (JZL-184 + Crizotinib; first compound 1.265 µM): 0.895 | relative viability (JZL-184 + Crizotinib; first compound 4 µM): 0.87

NCI-H1666
relative viability (JZL-184; 0.04 µM): 1.01 | relative viability (JZL-184; 0.4 µM): 1.01 | relative viability (JZL-184; 1.265 µM): 0.967 | relative viability (JZL-184; 4 µM): 1.04 | relative viability (JZL-184 + Vorinostat; first compound 0.04 µM): 1.07 | relative viability (JZL-184 + Vorinostat; first compound 0.4 µM): 1.02 | relative viability (JZL-184 + Vorinostat; first compound 1.265 µM): 1.01 | relative viability (JZL-184 + Vorinostat; first compound 4 µM): 1.01 | relative viability (JZL-184 + Luminespib; first compound 0.04 µM): 1.13 | relative viability (JZL-184 + Luminespib; first compound 0.4 µM): 1.02 | relative viability (JZL-184 + Luminespib; first compound 1.265 µM): 0.999 | relative viability (JZL-184 + Luminespib; first compound 4 µM): 0.912 | relative viability (JZL-184 + Linsitinib; first compound 0.04 µM): 0.836 | relative viability (JZL-184 + Linsitinib; first compound 0.4 µM): 0.921 | relative viability (JZL-184 + Linsitinib; first compound 1.265 µM): 0.917 | relative viability (JZL-184 + Linsitinib; first compound 4 µM): 0.881 | relative viability (JZL-184 + Crizotinib; first compound 0.04 µM): 1.17 | relative viability (JZL-184 + Crizotinib; first compound 0.4 µM): 0.983 | relative viability (JZL-184 + Crizotinib; first compound 1.265 µM): 0.872 | relative viability (JZL-184 + Crizotinib; first compound 4 µM): 0.992

NCI-H1734
relative viability (JZL-184; 0.04 µM): 1.12 | relative viability (JZL-184; 0.4 µM): 0.865 | relative viability (JZL-184; 1.265 µM): 1.03 | relative viability (JZL-184; 4 µM): 0.963 | relative viability (JZL-184 + Vorinostat; first compound 0.04 µM): 0.927 | relative viability (JZL-184 + Vorinostat; first compound 0.4 µM): 0.762 | relative viability (JZL-184 + Vorinostat; first compound 1.265 µM): 0.844 | relative viability (JZL-184 + Vorinostat; first compound 4 µM): 0.834 | relative viability (JZL-184 + Luminespib; first compound 0.04 µM): 0.207 | relative viability (JZL-184 + Luminespib; first compound 0.4 µM): 0.206 | relative viability (JZL-184 + Luminespib; first compound 1.265 µM): 0.185 | relative viability (JZL-184 + Luminespib; first compound 4 µM): 0.222 | relative viability (JZL-184 + Linsitinib; first compound 0.04 µM): 0.852 | relative viability (JZL-184 + Linsitinib; first compound 0.4 µM): 0.796 | relative viability (JZL-184 + Linsitinib; first compound 1.265 µM): 0.898 | relative viability (JZL-184 + Linsitinib; first compound 4 µM): 0.86 | relative viability (JZL-184 + Crizotinib; first compound 0.04 µM): 0.806 | relative viability (JZL-184 + Crizotinib; first compound 0.4 µM): 0.617 | relative viability (JZL-184 + Crizotinib; first compound 1.265 µM): 0.672 | relative viability (JZL-184 + Crizotinib; first compound 4 µM): 0.701

NCI-H1755
relative viability (JZL-184; 0.04 µM): 1.04 | relative viability (JZL-184; 0.4 µM): 0.988 | relative viability (JZL-184; 1.265 µM): 0.985 | relative viability (JZL-184; 4 µM): 0.956 | relative viability (JZL-184 + Vorinostat; first compound 0.04 µM): 0.704 | relative viability (JZL-184 + Vorinostat; first compound 0.4 µM): 0.634 | relative viability (JZL-184 + Vorinostat; first compound 1.265 µM): 0.798 | relative viability (JZL-184 + Vorinostat; first compound 4 µM): 0.638 | relative viability (JZL-184 + Luminespib; first compound 0.04 µM): 0.598 | relative viability (JZL-184 + Luminespib; first compound 0.4 µM): 0.418 | relative viability (JZL-184 + Luminespib; first compound 1.265 µM): 0.26 | relative viability (JZL-184 + Luminespib; first compound 4 µM): 0.405 | relative viability (JZL-184 + Linsitinib; first compound 0.04 µM): 0.976 | relative viability (JZL-184 + Linsitinib; first compound 0.4 µM): 1.01 | relative viability (JZL-184 + Linsitinib; first compound 1.265 µM): 1.01 | relative viability (JZL-184 + Linsitinib; first compound 4 µM): 0.943 | relative viability (JZL-184 + Crizotinib; first compound 0.04 µM): 0.933 | relative viability (JZL-184 + Crizotinib; first compound 0.4 µM): 0.894 | relative viability (JZL-184 + Crizotinib; first compound 1.265 µM): 0.835 | relative viability (JZL-184 + Crizotinib; first compound 4 µM): 0.793
